{
  "source": "patent US8545816B2",
  "about": "“Benzoic acid ester compounds, compositions, uses and methods related thereto” (Ferrer Internacional, S.A., priority 2005, dated 2013)",
  "key": {"[1]": {"test": "Phototransposition under UVB lamp irradiation (UV absorption spectrum / TLC follow-up)", "type": "physicochemical", "details": "for time to complete phototransposition (conversion to the dibenzoylmethane / benzophenone sunscreen): solution in methanol", "description": "A solution of 5 mg of 1-phenylvinyl 4-methoxybenzoate in 10 mL of methanol was irradiated with UVB lamps ([…]) for 20 minutes at 35° C. […] The conversion to benzoyl-4-methoxybenzoyl-methane was observed from the beginning, being the complete conversion in 5 minutes.\nA sample of 4 mL of a solution containing 0.231 mg of 1-(4-methoxyphenyl)-vinyl 4-tert-butylbenzoate in 50 mL of methanol was irradiated with UVB lamps (60 W·m^−2) for 10 minutes at 35° C. The conversion to avobenzone was completed in 5 minutes.\nA sample of 4 mL of a solution containing 0.400 mg of 1-(4-tert-butylphenyl)-vinyl 4-methoxybenzoate in 50 mL of methanol was irradiated with UVB lamps (60 W·m^−2) for 10 minutes at 35° C. The conversion to avobenzone was completed in 5 minutes.\nA solution containing 5 mg of 4-benzoyloxy-2-methoxy-benzenesulfonic acid in 10 mL of methanol was irradiated with UVB lamps (60 W·m^−2) for 20 minutes at 35° C. The absorption spectrum was then recorded minute by minute. The conversion to sulisobenzone was complete in 10 minutes.\nA sample of 4 mL of a solution containing 0.395 mg of 3-diethylaminophenyl benzoate in 50 mL of methanol was irradiated with UVB lamps (60 W·m^−2) for 20 minutes at 35° C. The phototransformation to 4-diethylamino-2-hydroxybenzophenone was completed in 10 minutes.\nA sample of 5 mg of 3-methoxyphenyl benzoate in 10 mL of polydimethylsiloxane (viscosity 10000 cSt) was irradiated with UVB lamps (60 W·m^−2) for 15 hours and 20 minutes at 35° C. The phototransformation to oxybenzone was completed in 40 minutes.\nA solution of 5 mg of 1-phenylvinyl 4-tert-butylbenzoate in 10 mL of tert-butanol was irradiated with UVB lamps (60 W·m^−2) for 5 hours at 35° C."}, "[2]": {"details": "cited from earlier work; for Absorbance: UV region absorbed; for Protection nm: wavelength range of protection"}},
  "data": [
    {"compound": "C=C(OC(=O)c1ccc(C(C)(C)C)cc1)c1ccc(OC)cc1", "note": "[1-(4-Methoxyphenyl)-vinyl 4-tert-butylbenzoate]", "values": [
      {"measurement": "time to complete phototransposition (conversion to the dibenzoylmethane / benzophenone sunscreen)", "setting": "[1]; UVB lamps 60 W·m^−2, 35° C.", "result": 5, "unit": "min"}
    ]},
    {"compound": "C=C(OC(=O)c1ccc(OC)cc1)c1ccc(C(C)(C)C)cc1", "note": "[1-(4-Tert-butylphenyl)-vinyl 4-methoxybenzoate]", "values": [
      {"measurement": "time to complete phototransposition (conversion to the dibenzoylmethane / benzophenone sunscreen)", "setting": "[1]; UVB lamps 60 W·m^−2, 35° C.", "result": 5, "unit": "min"}
    ]},
    {"compound": "C=C(OC(=O)c1ccc(OC)cc1)c1ccccc1", "note": "[1-phenylvinyl 4-methoxybenzoate, 1-Phenylvinyl 4-methoxybenzoate]", "values": [
      {"measurement": "crude reaction spectrum after irradiation", "setting": "[1]; methanol, UVB lamps, 20 minutes, 35° C.", "result": "new absorption band in UVA zone"},
      {"measurement": "time to complete phototransposition (conversion to the dibenzoylmethane / benzophenone sunscreen)", "setting": "[1]; UVB lamps 60 W·m^−2, 35° C.", "result": 5, "unit": "min"}
    ]},
    {"compound": "C=C(OC(=O)c1ccc(C(C)(C)C)cc1)c1ccccc1", "note": "[1-phenylvinyl 4-tert-butylbenzoate, 1-Phenylvinyl 4-tert-butyl-benzoate]", "values": [
      {"measurement": "products detected after irradiation (thin layer chromatography, 1H-NMR)", "setting": "[1]; tert-butanol, UVB lamps 60 W·m^−2, 5 hours, 35° C.", "result": "Some different compounds were detected by thin layer chromatography (hexane/ethyl acetate 2:1), one of said compounds being benzoyl-4-tert-butylbenzoylmethane"}
    ]},
    {"compound": "CCN(CC)c1cccc(OC(=O)c2ccccc2)c1", "note": "[3-diethylaminophenyl benzoate, 3-Diethylaminophenyl benzoate]", "values": [
      {"measurement": "time to complete phototransposition (conversion to the dibenzoylmethane / benzophenone sunscreen)", "setting": "[1]; UVB lamps 60 W·m^−2, 35° C.", "result": 10, "unit": "min"}
    ]},
    {"compound": "COc1cccc(OC(=O)c2ccccc2)c1", "note": "[3-methoxyphenyl benzoate, 3-Methoxyphenyl benzoate]", "values": [
      {"measurement": "time to complete phototransformation to oxybenzone", "setting": "[1]; in polydimethylsiloxane (viscosity 10000 cSt), UVB lamps 60 W·m^−2, 35° C.", "result": 40, "unit": "min"}
    ]},
    {"compound": "COc1cc(OC(=O)c2ccccc2)ccc1S(=O)(=O)O", "note": "[4-Benzoyloxy-2-methoxybenzene-sulfonic acid]", "values": [
      {"measurement": "time to complete phototransposition (conversion to the dibenzoylmethane / benzophenone sunscreen)", "setting": "[1]; UVB lamps 60 W·m^−2, 35° C.", "result": 10, "unit": "min"}
    ]},
    {"compound": "COc1ccc(C(=O)CC(=O)c2ccc(C(C)(C)C)cc2)cc1", "note": "[Avobenzone, 4-tert-butyl-4′-methoxydibenzoylmethane]", "values": [
      {"measurement": "Absorbance", "setting": "[2]", "result": "UVA I^1 (340-400 nm)"},
      {"measurement": "Protection nm", "setting": "[2]", "result": "320-400 nm"}
    ]},
    {"compound": "COc1ccc(C(=O)c2ccccc2)c(O)c1", "note": "[Oxybenzone, 2-hydroxy-4-methoxybenzophenone]", "values": [
      {"measurement": "Absorbance", "setting": "[2]", "result": "UVB, UVA II^2"},
      {"measurement": "Protection nm", "setting": "[2]", "result": "270-350 nm"}
    ]},
    {"compound": "COc1cc(O)c(C(=O)c2ccccc2)cc1S(=O)(=O)O", "note": "[Sulisobenzone, 5-benzoyl-4-hydroxy-2-methoxy-benzenesulfonic acid]", "values": [
      {"measurement": "Absorbance", "setting": "[2]", "result": "UVB, UVA II^2"},
      {"measurement": "Protection nm", "setting": "[2]", "result": "260-375 nm"}
    ]}
  ]
}
